# Reference: patent EP4775580A1, “COMPOUND, PHARMACEUTICAL COMPOSITION COMPRISING SAME, AND USE THEREOF” (Euregen Biopharma Co., Ltd., priority 2023, dated 2025)
# Columns and labels:
# [1] = Pharmacokinetics in mice after single IV and PO administration (LC-MS/MS); format: in vivo, male ICR mice; details: ICR mice
# Method: • 1. Objective: This study aimed to characterize the pharmacokinetic properties of selected compounds from the examples of the present invention in male ICR mice following single intravenous (IV) injection and oral (PO) administration using LC-MS/MS methodology. • 2. Experimental Materials: Test compounds were prepared according to the examples of the present invention; male ICR mice were obtained from Shanghai Jihui Laboratory Animal Breeding Co., Ltd. (License No. SCXK(Shanghai)2022-0009). • 3. Experimental Methods: Preparation of 0.5% methylcellulose (pH = 4.91): 5 g of methylcellulose was weighed and dissolved in 1000 mL of purified water, and the pH was adjusted to 4.91 with 100 mM citric acid.
# Preparation of oral formulations: The required amount of test compound was weighed and dissolved in 0.5% methylcellulose (pH = 4.91) solution to obtain a suspension or solution at 3 mg/mL.
# Preparation of intravenous injection formulations: The required amount of test compound was weighed and dissolved in 0.5 mL dimethyl sulfoxide to prepare a 12 mg/mL solution. To 0.25 mL of this solution, 0.5 mL of polyethylene glycol 15-hydroxystearate (Solutol) and 4.25 mL of normal saline were added to obtain a 0.6 mg/mL solution.
# Dosing: Male ICR mice were fasted overnight prior to oral (PO) administration; fasting was not required for the single intravenous (IV) injection group. Food was provided 4 hours post-dosing.
# Sample Collection: Blood was collected from the jugular vein or other suitable veins, with 0.03 mL collected at each time point. Samples were placed in tubes containing dipotassium ethylenediaminetetraacetate and kept on ice prior to centrifugation. Within 1 hour of blood collection, samples were centrifuged at 6800 × g for 6 minutes at 2-8°C and stored at -80°C. Blood sampling time points for intravenous administration were 0.083, 0.25, 0.5, 1, 2, 4, 8, 24, and 32 hours post-dosing. Blood sampling time points for oral administration were 0.25, 0.5, 1, 2, 4, 8, 24, and 32 hours post-dosing.
# [2] = Pharmacokinetics in rats after single IV and PO administration (LC-MS/MS); format: in vivo, male SD rats; details: SD rats
# Method: • 1. Objective: This study aimed to characterize the pharmacokinetic properties of selected compounds from the examples of the present invention in SD rats following single intravenous (IV) injection and oral (PO) administration using LC-MS/MS methodology. • 2. Experimental Materials: Test compounds were prepared according to the examples of the present invention; male SD rats were obtained from the Laboratory Animal Department of Shanghai Institute of Planned Parenthood Research (License No. SCXK(Shanghai)2018-0006) or Shanghai Jihui Laboratory Animal Breeding Co., Ltd. (License No. SCXK(Shanghai)2022-0009). • 3. Experimental Methods: Preparation of 0.5% methylcellulose: 5 g of methylcellulose was weighed and dissolved in 1000 mL of purified water. Preparation of 0.5% methylcellulose (pH = 5.03): 5 g of methylcellulose was weighed and dissolved in 1000 mL of purified water, and the pH was adjusted to 5.03 with 100 mM citric acid.
# Preparation of oral formulations: The required amount of test compound was weighed and dissolved in 0.5% methylcellulose solution or 0.5% methylcellulose (pH = 5.03) to obtain a suspension or solution at 1 or 3 mg/mL.
# Preparation of intravenous injection formulations: The required amount of test compound (EB229, EB300, EB341, EB342) was weighed and dissolved in 0.5 mL dimethyl sulfoxide to prepare a 4 mg/mL solution. To 0.25 mL of this solution, 0.5 mL of polyethylene glycol 15-hydroxystearate (Solutol) and 4.25 mL of normal saline were added to obtain a 0.2 mg/mL solution. For EB834, 6 mg was weighed and dissolved in 0.1 mL dimethyl sulfoxide, followed by addition of 0.2 mL polyethylene glycol 15-hydroxystearate (Solutol) and 1.7 mL normal saline to obtain a 3 mg/mL solution.
# Dosing: Male SD rats were fasted overnight prior to oral (PO) administration; fasting was not required for the single intravenous (IV) injection group. Food was provided 4 hours post-dosing.
# Sample Collection: Blood was collected from the jugular vein or other suitable veins, with 0.2 mL collected at each time point. Samples were placed in tubes containing dipotassium ethylenediaminetetraacetate and kept on ice prior to centrifugation. Within 1 hour of blood collection, samples were centrifuged at 6800 × g for 6 minutes at 2-8°C and stored at -80°C.
smiles,measurement,setting,value
CCN(C(=O)c1cc(F)ccc1N1CCN([C@@H]2CCN([C@H](CCCN(C)CCOC)C(C)C)C2)c2ncncc21)C(C)C [Example 3],PO F,[1]; PO 30 mg/kg vs IV 3 mg/kg,25.6%
same,AUC(0-t),"[1]; mouse, in vivo, IV 3 mg/kg, read-out: IV AUC(0-t)",429 ng·h/mL
same,clearance,"[1]; mouse, in vivo, IV 3 mg/kg, read-out: IV CL",104 mL/min/kg
same,Cmax,"[1]; mouse, in vivo, IV 3 mg/kg, read-out: IV Cmax",418 ng/mL
same,Vd,"[1]; mouse, in vivo, IV 3 mg/kg, read-out: IV Vss",65.1 L/kg
same,half-life,"[1]; mouse, in vivo, IV 3 mg/kg, read-out: IV t1/2 (converted)",10.9 h
same,AUC(0-t),"[1]; mouse, in vivo, PO 30 mg/kg, 0.5% methylcellulose (pH = 4.91), read-out: PO AUC(0-t)",1100 ng·h/mL
same,Cmax,"[1]; mouse, in vivo, PO 30 mg/kg, 0.5% methylcellulose (pH = 4.91), read-out: PO Cmax",293 ng/mL
same,half-life,"[1]; mouse, in vivo, PO 30 mg/kg, 0.5% methylcellulose (pH = 4.91), read-out: PO t1/2 (converted)",6.49 h
same,PO F,[2]; PO 30 mg/kg vs IV 3 mg/kg,172%
same,AUC(0-t),"[2]; rat, in vivo, IV 3 mg/kg, read-out: IV AUC(0-t)",494 ng·h/mL
same,clearance,"[2]; rat, in vivo, IV 3 mg/kg, read-out: IV CL",59.2 mL/min/kg
same,Cmax,"[2]; rat, in vivo, IV 3 mg/kg, read-out: IV Cmax",193 ng/mL
same,Vd,"[2]; rat, in vivo, IV 3 mg/kg, read-out: IV Vss",203 L/kg
same,half-life,"[2]; rat, in vivo, IV 3 mg/kg, read-out: IV t1/2 (converted)",52.9 h
same,AUC(0-t),"[2]; rat, in vivo, PO 30 mg/kg, 0.5% MC (pH 5.03), read-out: PO AUC(0-t)",8500 ng·h/mL
same,Cmax,"[2]; rat, in vivo, PO 30 mg/kg, 0.5% MC (pH 5.03), read-out: PO Cmax",1140 ng/mL
same,half-life,"[2]; rat, in vivo, PO 30 mg/kg, 0.5% MC (pH 5.03), read-out: PO t1/2 (converted)",21.3 h
